Values joined by “and” are separate entries in the source; they are usually repeats but may differ in a detail not shown here. Identical values can stand only once.
Experiments:
Trypanosoma cruzi [1] = experiment: microbe, parasite or virus in culture; assay type: functional, Tulahuen LacZ, Clone C4
Trypanosoma cruzi [2] = experiment: microbe, parasite or virus in culture; assay type: functional, organism-based, Tulahuen LacZ, Clone C4
L6 = experiment: (§1) DNDI: Cytotoxicity against L-6 rat myoblasts from skeletal muscle cells; conditions: L6 rat skeletal muscle myoblast cells
[3] = as §1; conditions: L6 rat skeletal muscle myoblast cells
[4] = Trypanosoma cruzi, Tulahuen LacZ, Clone C4

Which IC90 (Trypanosoma cruzi [1]) does the source give for CS(=O)(=O)c1ccc(N2CCC(NC(c3cccnc3)c3ccc(Cl)cc3F)CC2)cc1 (stereo not drawn) here?
The IC90 was 8 nM.

And the IC90 (Trypanosoma cruzi [1]; [4])?
The IC90 was 7.5 nM.

What about the IC50 (Trypanosoma cruzi [2]) of the same compound?
Its IC50 is 2.6 nM and 6 nM.

What about the IC50 (L6) of the same compound?
The IC50 was 26600 nM.

What about the IC50 ([3]; IC50) of the same compound?
The IC50 was 49700 nM.

Which IC90 (Trypanosoma cruzi [1]) does the source give for Fc1cc(Cl)ccc1C(NC1CCN(c2ccc(C(F)(F)F)cc2F)CC1)c1cccnc1 (stereo not drawn) here?
Its IC90 is 31.5 nM.

And the IC90 (Trypanosoma cruzi [1]; [4])?
Its IC90 is 24 nM.

And the IC50 (Trypanosoma cruzi [2])?
The IC50 was 8 nM and 16.5 nM.

And the IC50 (L6)?
Its IC50 is 53000 nM.

And the IC50 ([3]; IC50)?
Its IC50 is 51500 nM.

For FC(F)(F)c1ccc(N2CCC(NC(c3ccc(Cl)cc3)c3cccnc3)CC2)cn1 (stereo not drawn), which IC90 (Trypanosoma cruzi [1]) is on record?
The IC90 was 16 nM.

What about the IC90 (Trypanosoma cruzi [1]; [4]) of the same compound?
Its IC90 is 17.5 nM.

What about the IC50 (Trypanosoma cruzi [2]) of the same compound?
The IC50 was 6.6 nM.

What about the IC50 (Trypanosoma cruzi [2]; [4]) of the same compound?
The IC50 was 7 nM.

And the IC50 (L6)?
The IC50 was 54400 nM.

And the IC50 ([3]; IC50)?
Its IC50 is 39600 nM.

For CC(C)Oc1ccc(C(O)(c2ccc(Cl)cc2)c2cccnc2)cc1 (stereo not drawn), which IC90 (Trypanosoma cruzi [1]) is on record?
The IC90 was 18 nM and 6 nM.

And the IC50 (Trypanosoma cruzi [2])?
The IC50 was 8.2 nM and 2 nM.

And the IC50 (L6)?
Its IC50 is 56600 nM.

What about the IC50 [3] of the same compound?
Its IC50 is 52000 nM.

Which results are given for O=C(NC1CCN(C(c2ccc(C(F)(F)F)cc2)c2cccnc2)CC1)c1c(F)cccc1F (stereo not drawn)?
IC90 (Trypanosoma cruzi [1]): 37 nM; IC90 (Trypanosoma cruzi [1]; [4]): 24 nM; IC50 (Trypanosoma cruzi [2]): 8.5 nM; IC50 (Trypanosoma cruzi [2]; [4]): 16.5 nM; IC50 (L6): > 100000 nM; IC50 ([3]; IC50): 56700 nM

Which IC90 (Trypanosoma cruzi [1]) does the source give for N#Cc1cccc(N2CCC(NC(c3cccnc3)c3ccc(Cl)cc3F)CC2)c1 (stereo not drawn) here?
Its IC90 is 34 nM.

What about the IC90 (Trypanosoma cruzi [1]; [4]) of the same compound?
Its IC90 is 37 nM.

And the IC50 (Trypanosoma cruzi [2])?
Its IC50 is 12.5 nM.

And the IC50 (Trypanosoma cruzi [2]; [4])?
Its IC50 is 21 nM.

And the IC50 (L6)?
Its IC50 is 32200 nM.

And the IC50 ([3]; IC50)?
Its IC50 is 55400 nM.

With Fc1cc(Cl)ccc1C(NC1CCN(c2ccc(C(F)(F)F)cc2)CC1)c1cccnc1 (stereo not drawn) as the compound, how does the IC90 (Trypanosoma cruzi [1]) read?
The IC90 was 37.5 nM and 34 nM.

What about the IC90 (Trypanosoma cruzi [1]; [4]) of the same compound?
Its IC90 is 29.5 nM.

And the IC50 (Trypanosoma cruzi [2])?
The IC50 was 11 nM and 10.5 nM.

And the IC50 (Trypanosoma cruzi [2]; [4])?
Its IC50 is 9.5 nM.

What about the IC50 (L6) of the same compound?
The IC50 was 52400 nM.

What about the IC50 ([3]; IC50) of the same compound?
Its IC50 is 55700 nM.

With N#Cc1ccc(C(O)(c2ccc(C(F)(F)F)cc2)c2cccnc2)c(F)c1 (stereo not drawn) as the compound, how does the IC90 (Trypanosoma cruzi [1]) read?
The IC90 was 9.52 nM.

And the IC90 (Trypanosoma cruzi [1]; [4])?
The IC90 was 12.5 nM.

What about the IC50 (Trypanosoma cruzi [2]) of the same compound?
Its IC50 is 5.5 nM and 1.9 nM.

And the IC50 (L6)?
Its IC50 is 56100 nM.

And the IC50 ([3]; IC50)?
The IC50 was 77200 nM.

Which IC90 (Trypanosoma cruzi [1]) does the source give for FC(F)(F)c1ccc(N2CCC(NC(c3ccc(Cl)cc3)c3cccnc3)CC2)nc1 (stereo not drawn) here?
Its IC90 is 90 nM.

What about the IC90 (Trypanosoma cruzi [1]; [4]) of the same compound?
The IC90 was 48 nM.

What about the IC50 (Trypanosoma cruzi [2]) of the same compound?
The IC50 was 19 nM and 46 nM.

And the IC50 (L6)?
Its IC50 is 62500 nM.

And the IC50 ([3]; IC50)?
The IC50 was 55300 nM.

Reference: ChEMBL document CHEMBL1862790, “Optimisation of fenarimol series for the treatment of Chagas disease”
